Experimental data: the supplement of paper PMC9780213

What was measured:
Details in all cases: treatment time: 24 h
U2OS-LMNB1-TUBA1B-ACTB = assay: cell count relative to DMSO control (panel C1, DRAQ5/ER stain) (fraction of control); higher = more cells (less toxicity)
Method: (§1)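 U2OS-derived cells in 384-well plates were treated for 24 h with a 7-point 2-fold dilution series (top dose 20 µM for most compounds; final max DMSO 1%), then fixed, stained in four marker panels and imaged on a Cellomics ArrayScan. Cell count per treatment (three replicate plates merged) is given as a fraction of DMSO control. Panel A used parental U2OS, panel B U2OS-mOrange2-Peroxisome, panel C1 U2OS-LMNB1-TUBA1B-ACTB (DRAQ5 nuclei).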

U2OS-mOrange2-Peroxisome = assay: cell count relative to DMSO control (panel B, lysosome/peroxisome/lipid stain) (fraction of control); higher = more cells (less toxicity)
Method: as §1

U2OS = assay: cell count relative to DMSO control (panel A, nuclei/RNA/PMG/mitochondria stain) (fraction of control); higher = more cells (less toxicity)
Method: as §1

Cc1c(N)nc([C@H](CC(N)=O)NC[C@H](N)C(N)=O)nc1C(=O)N[C@H](C(=O)N[C@H](C)[C@@H](O)[C@H](C)C(=O)N[C@H](C(=O)NCCc1nc(-c2nc(C(=O)NCCC[S+](C)C)cs2)cs1)[C@@H](C)O)[C@@H](O[C@@H]1O[C@@H](CO)[C@@H](O)[C@H](O)[C@@H]1O[C@H]1O[C@H](CO)[C@@H](O)[C@H](OC(N)=O)[C@@H]1O)c1c[nH]cn1 [bleomycin]
cell count
Details	0.3125 µM	0.625 µM	1.25 µM	2.5 µM	5 µM	10 µM	20 µM
U2OS	0.746	0.849	0.8	0.933	0.701	0.817	0.794
U2OS-LMNB1-TUBA1B-ACTB	0.845	0.893	0.934	1.02	0.88	0.909	0.887
U2OS-mOrange2-Peroxisome	1.36	1.16	1.31	1.26	1.32	1.25	1.34

O=c1[nH]c(=O)n([C@H]2C[C@H](O)[C@@H](CO)O2)cc1F [floxuridine]
cell count
Details	0.3125 µM	0.625 µM	1.25 µM	2.5 µM	5 µM	10 µM	20 µM
U2OS	0.806	0.815	0.744	0.681	0.609	0.58	0.558
U2OS-LMNB1-TUBA1B-ACTB	1.06	1	0.979	0.737	0.792	0.929	0.892
U2OS-mOrange2-Peroxisome	1.52	1.54	1.34	1.14	1.11	0.829	1.31

N#CC(C#N)=NNc1ccc(OC(F)(F)F)cc1 [FCCP]
cell count
Details	0.3125 µM	0.625 µM	1.25 µM	2.5 µM	5 µM	10 µM	20 µM
U2OS	0.961	0.945	0.883	0.867	0.897	0.622	0.704
U2OS-LMNB1-TUBA1B-ACTB	1.11	1.13	1.01	1.05	0.894	0.666	0.651
U2OS-mOrange2-Peroxisome	0.804	0.769	0.715	0.625	0.802	0.659	0.618

O=C(/C=C\n1cnc(-c2cc(C(F)(F)F)cc(C(F)(F)F)c2)n1)NNc1cnccn1 [selinexor]
cell count
Details	0.3125 µM	0.625 µM	1.25 µM	2.5 µM	5 µM	10 µM	20 µM
U2OS	1.01	0.994	1.03	0.971	0.9	0.779	0.502
U2OS-LMNB1-TUBA1B-ACTB	1.1	1.06	1.12	1.15	1.07	0.834	0.693
U2OS-mOrange2-Peroxisome	0.905	0.657	0.758	0.705	0.676	0.598	0.484

C=C1[C@@H](C)[C@H]2[C@H](Cc3ccccc3)NC(=O)[C@]23[C@H](OC(C)=O)/C=C/[C@@](C)(O)C(=O)[C@@H](C)C/C=C/[C@H]3[C@@H]1O [cytochalasin-d]
cell count
Details	0.000781 µM	0.0015625 µM	0.003125 µM	0.00625 µM	0.0125 µM	0.025 µM	0.05 µM
U2OS	0.938	0.944	0.899	1	0.643	0.463	0.403
U2OS-LMNB1-TUBA1B-ACTB	1.08	1.04	1.04	0.821	0.499	0.374	0.356
U2OS-mOrange2-Peroxisome	0.993	1.12	1.29	1.24	0.826	0.656	0.602

CO[C@H]1C[C@@H]2CC[C@@H](C)[C@@](O)(O2)C(=O)C(=O)N2CCCC[C@H]2C(=O)O[C@H]([C@H](C)C[C@@H]2CC[C@@H](OP(C)(C)=O)[C@H](OC)C2)CC(=O)[C@H](C)/C=C(\C)[C@@H](O)[C@@H](OC)C(=O)[C@H](C)C[C@H](C)/C=C/C=C/C=C/1C [deforolimus]
cell count
Details	0.07812 µM	0.15625 µM	0.3125 µM	0.625 µM	1.25 µM	2.5 µM	5 µM
U2OS	0.964	0.74	0.655	0.557	0.504	0.582	0.382
U2OS-LMNB1-TUBA1B-ACTB	0.878	0.753	0.625	0.644	0.471	0.438	0.373
U2OS-mOrange2-Peroxisome	0.782	0.674	0.595	0.61	0.485	0.385	0.364
